What was measured:
[1] = test system: F2-IsoPs esterified in the kidney; assay: Galactosamine treated rats (hepatorenal syndrome model), F2-IsoPs esterified in the kidney; type: in vivo, rat; conditions: 1 g/L drinking water
Description: Another antioxidant of the present invention is lipoic acid. […] Dihydrolipoic acid is a dithiol. As mentioned previously, thiols reduce the endoperoxide intermediates in the IsoP pathway in vivo to F2-IsoPs. Reducing the endoperoxides concomitantly therefore reduces the formation of endoperoxide rearrangement products, one of which is the IsoKs (FIG. 28). Therefore, mechanistically lipoic acid is an antioxidant to test in animal models of AD. It is also an antioxidant to test because it is available over the counter for human use.

[2] = test system: aged SAMP mice; conditions: mouse, in vivo; cited from earlier work
[3] = molecular target: native Na+ channels in HL-1 cells (Mus musculus, UniProt Q9JJV9); conditions: for Na channel availability: HL-1, preincubation; for V1/2 availability of native Na+ channels: HL-1, t-BHP 2 mM, Iso-K 10 μM
[4] = test system: HEK-293 cells; assay: Lipid peroxidation products in HEK 293 cells treated with t-BHP; type: cell-based; conditions: exposure of HEK cells
Procedure: Synthesis and analysis of reactive products of lipid peroxidation: E2-isoketal was synthesized as previously described. The present inventors used mass spectrometry to analyze F2-isoprostanes formed following treatment of HEK 293 cells with t-BHP. For this assay, HEK-293 cells (1×10^6) were treated for 30 minutes at room temperature with buffer containing 100 μM t-BHP, or 100 μM t-BHP and 200 μM FeCl2. Total (free and esterified) F2-isoprostanes (F2-IsoPs) esterified in cellular lipids were then quantified by a highly accurate GC/NICI/MS assay as described previously.

[5] = test system: recombinant human tau; assay: PHF-tau formation, dot blot with Alz50; type: biochemical; conditions: equimolar IsoK and tau, within 2 hrs
Procedure: Synthetic IsoK to equimolar amounts of recombinant human tau was added and the amount of PHF-tau formation by dot blot analysis was determined with the monoclonal antibody Alz50 (a gift from Dr. Peter Davis). Alz50 recognizes an epitope unique to PHF-tau. […] (FIG. 33).

[6] = molecular target: human cardiac Na channel (hH1, or SCN5A) (Homo sapiens, UniProt Q14524); assay: Whole-cell Na current recording, wild-type hH1 expressed in HEK-293 cells; conditions: for P500/P1 (use-dependence): 5 Hz, 500 pulses; for V1/2 voltage-dependence of inactivation (availability): HEK-293, t-BHP 1 mM, Iso-K 10 μM
[7] = molecular target: bovine serum albumin (Bos taurus, UniProt P02769); assay: Disappearance of free IsoK and HNE during incubation with bovine serum albumin (rate of adduction); type: biochemical
Procedure: Oxidation of AA in vitro produces both F2-IsoPs and IsoKs in nearly equivalent amounts. However, comparison of the formation of F2-IsoPs and IsoKs in vivo is more complex, because IsoKs rapidly adduct to lysyl residues on proteins. […] In striking contrast, approximately 50% of the HNE still remained in free form after 80 minutes.

[8] = test system: proteasome chymotrypsin-like activity; assay: Inhibition of chymotrypsin-like activity in RAW cell lysates; type: biochemical
Description: When the mechanism of inhibition id analyzed, both competitive and non-competitive mechanism are found. Therefore, in addition to adducted proteins inhibiting the proteasome, IsoKs may cause inhibition by directly adducting to the proteasome itself, or to proteins that regulate proteasome activity.

[9] = test system: proteasome; assay: Proteasome inhibition in P19 neuroglial cultures; type: cell-based
Description: (§1) Because inhibitors of proteasome function induce neuronal death, the present inventors examined the toxicity of IsoKs.

[10] = molecular target: ovalbumin (OVA) (Gallus gallus, UniProt P01012); assay: Protein cross-linking after incubation with ovalbumin; type: biochemical; conditions: 10 molar equivalents, about 4 hours
Description: The above findings explained why repeated attempts in the past to detect free IsoKs during oxidation of biological systems in vitro, e.g. microsomes, and in animal models of oxidant injury in vivo were unsuccessful because they are rapidly sequestered as protein adducts. Therefore, the present inventors undertook to determine the identity of IsoK lysyl adducts as a basis for development of methodology to detect IsoK and NeuroK adducts in biological tissues in their adducted form. […] Reversible Schiff base adducts were also identified. Schiff base adducts are formed rapidly and then decline over time, whereas lactam adducts accumulate slowly over time. Lysyl protein adducts of IsoKs and NeuroKs are analyzed by LC/MS/MS following enzymatic digestion of proteins to individual amino acids. Enzymatic digestion of proteins is necessary because the adducts degrade during acid hydrolysis. However, this analysis is further complicated by the proclivity of IsoKs and NKs to induce protein crosslinking, which is resistant to hydrolysis. […] This is a dramatic example of the differential effects of IsoKs/NKs and HNE on protein adduction and cross-linking.

[11] = test system: P19 neuroglial cultures; assay: Cell death in P19 neuroglial cultures; type: cell-based; conditions: read-out: LC50 cell death
Description: as §1

[12] = molecular target: mutant Na+ channel (F1760A) (Homo sapiens, UniProt Q14524, F1760A); assay: Whole-cell Na current recording, F1760A mutant Na+ channel; type: cell-based; conditions: flecainide 10 μM, IsoK 10 μM
Procedure: A. Use-dependent flecainide block was examined using the protocol shown. A train of 500 depolarizing pulses with 10 msec duration at −20 mV were applied at a frequency of 5 Hz. Currents are plotted from every twentieth pulse. Upper panel represents the current in the presence of flecainide (1 μM). Lower panel represents INa in the presence of flecainide and IsoK (10 μM). B. Depolarization-dependent effects are summarized as a function of the pulse number. All current amplitudes are normalized to that of the first depolarization and every tenth pulse is plotted. […] For these experiments flecainide concentration was increased to 10 μM.
Where indicated, cells were co-transfected with an equimolar ratio of Na channel human β1 subunit. cDNAs were transiently transfected into HEK-293 cells using lipofectamine (GIBCO-BRL, Gaithersburg, Md.), and were cultured in MEM medium supplemented with 10% fetal bovine serum and 1% pen-strep in a 5% CO2 incubator at 37° C. for 1 to 4 days.
The effects of IsoK were tested using the same protocol as FIG. 39A. In this experiment, the concentration of flecainide was increased to 10 μM to exaggerate use-dependence.

[13] = test system: patients convalescing from myocardial infarction; conditions: in vivo; cited from earlier work
[14] = alone, flecainide 1 μM, IsoK 10 μM

Sequence of native Na+ channels in HL-1 cells (Q9JJV9 whole entry): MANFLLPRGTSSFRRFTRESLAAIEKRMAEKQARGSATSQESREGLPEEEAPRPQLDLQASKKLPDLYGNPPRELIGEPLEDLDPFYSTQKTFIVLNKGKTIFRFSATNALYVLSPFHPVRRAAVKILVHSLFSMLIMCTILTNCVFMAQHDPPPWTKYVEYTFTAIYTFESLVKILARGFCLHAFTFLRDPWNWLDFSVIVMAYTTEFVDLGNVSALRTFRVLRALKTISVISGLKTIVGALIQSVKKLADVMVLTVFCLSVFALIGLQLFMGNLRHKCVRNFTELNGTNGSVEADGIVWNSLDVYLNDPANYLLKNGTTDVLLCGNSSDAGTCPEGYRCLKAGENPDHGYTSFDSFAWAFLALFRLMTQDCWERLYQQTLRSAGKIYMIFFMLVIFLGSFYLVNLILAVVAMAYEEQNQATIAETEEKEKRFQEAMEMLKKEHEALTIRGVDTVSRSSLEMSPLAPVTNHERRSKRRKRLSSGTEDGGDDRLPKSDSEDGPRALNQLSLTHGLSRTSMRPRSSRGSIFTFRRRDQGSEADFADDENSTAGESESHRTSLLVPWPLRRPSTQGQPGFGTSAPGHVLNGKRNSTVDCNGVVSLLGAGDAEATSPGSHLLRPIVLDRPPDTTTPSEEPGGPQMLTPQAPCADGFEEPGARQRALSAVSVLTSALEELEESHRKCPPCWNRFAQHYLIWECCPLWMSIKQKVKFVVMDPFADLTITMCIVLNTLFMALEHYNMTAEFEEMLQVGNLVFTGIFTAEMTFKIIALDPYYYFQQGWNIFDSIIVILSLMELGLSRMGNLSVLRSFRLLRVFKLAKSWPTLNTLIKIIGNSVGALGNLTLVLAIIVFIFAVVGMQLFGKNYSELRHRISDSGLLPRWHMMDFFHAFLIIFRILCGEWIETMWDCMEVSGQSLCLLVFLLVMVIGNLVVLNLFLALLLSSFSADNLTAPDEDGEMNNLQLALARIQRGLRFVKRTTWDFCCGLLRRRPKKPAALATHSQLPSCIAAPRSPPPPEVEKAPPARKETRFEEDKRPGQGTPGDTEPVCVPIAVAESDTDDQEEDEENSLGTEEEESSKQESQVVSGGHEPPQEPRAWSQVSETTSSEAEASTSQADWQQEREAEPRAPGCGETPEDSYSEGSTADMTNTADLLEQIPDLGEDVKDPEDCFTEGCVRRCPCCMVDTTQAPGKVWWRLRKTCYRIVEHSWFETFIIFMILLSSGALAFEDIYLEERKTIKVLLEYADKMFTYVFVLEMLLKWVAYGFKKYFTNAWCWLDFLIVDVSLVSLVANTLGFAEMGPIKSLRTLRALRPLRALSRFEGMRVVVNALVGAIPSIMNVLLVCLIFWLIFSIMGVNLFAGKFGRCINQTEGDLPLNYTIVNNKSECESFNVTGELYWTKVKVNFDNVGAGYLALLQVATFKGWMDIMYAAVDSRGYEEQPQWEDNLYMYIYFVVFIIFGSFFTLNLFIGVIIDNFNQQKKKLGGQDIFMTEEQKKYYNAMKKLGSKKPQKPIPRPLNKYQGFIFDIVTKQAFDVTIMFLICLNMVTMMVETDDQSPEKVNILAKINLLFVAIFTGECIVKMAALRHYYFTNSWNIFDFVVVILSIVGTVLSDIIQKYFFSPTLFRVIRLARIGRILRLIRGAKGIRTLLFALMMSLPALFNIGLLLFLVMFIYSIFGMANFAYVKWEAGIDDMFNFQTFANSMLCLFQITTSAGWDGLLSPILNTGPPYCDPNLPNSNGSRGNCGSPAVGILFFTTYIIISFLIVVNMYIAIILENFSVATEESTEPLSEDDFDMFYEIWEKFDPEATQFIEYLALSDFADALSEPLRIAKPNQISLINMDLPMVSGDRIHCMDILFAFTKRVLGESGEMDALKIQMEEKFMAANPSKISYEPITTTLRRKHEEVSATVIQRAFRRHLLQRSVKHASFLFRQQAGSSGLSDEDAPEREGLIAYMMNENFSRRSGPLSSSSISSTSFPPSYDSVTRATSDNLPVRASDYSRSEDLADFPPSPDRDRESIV
Sequence of human cardiac Na channel (hH1, or SCN5A) (Q14524 whole entry): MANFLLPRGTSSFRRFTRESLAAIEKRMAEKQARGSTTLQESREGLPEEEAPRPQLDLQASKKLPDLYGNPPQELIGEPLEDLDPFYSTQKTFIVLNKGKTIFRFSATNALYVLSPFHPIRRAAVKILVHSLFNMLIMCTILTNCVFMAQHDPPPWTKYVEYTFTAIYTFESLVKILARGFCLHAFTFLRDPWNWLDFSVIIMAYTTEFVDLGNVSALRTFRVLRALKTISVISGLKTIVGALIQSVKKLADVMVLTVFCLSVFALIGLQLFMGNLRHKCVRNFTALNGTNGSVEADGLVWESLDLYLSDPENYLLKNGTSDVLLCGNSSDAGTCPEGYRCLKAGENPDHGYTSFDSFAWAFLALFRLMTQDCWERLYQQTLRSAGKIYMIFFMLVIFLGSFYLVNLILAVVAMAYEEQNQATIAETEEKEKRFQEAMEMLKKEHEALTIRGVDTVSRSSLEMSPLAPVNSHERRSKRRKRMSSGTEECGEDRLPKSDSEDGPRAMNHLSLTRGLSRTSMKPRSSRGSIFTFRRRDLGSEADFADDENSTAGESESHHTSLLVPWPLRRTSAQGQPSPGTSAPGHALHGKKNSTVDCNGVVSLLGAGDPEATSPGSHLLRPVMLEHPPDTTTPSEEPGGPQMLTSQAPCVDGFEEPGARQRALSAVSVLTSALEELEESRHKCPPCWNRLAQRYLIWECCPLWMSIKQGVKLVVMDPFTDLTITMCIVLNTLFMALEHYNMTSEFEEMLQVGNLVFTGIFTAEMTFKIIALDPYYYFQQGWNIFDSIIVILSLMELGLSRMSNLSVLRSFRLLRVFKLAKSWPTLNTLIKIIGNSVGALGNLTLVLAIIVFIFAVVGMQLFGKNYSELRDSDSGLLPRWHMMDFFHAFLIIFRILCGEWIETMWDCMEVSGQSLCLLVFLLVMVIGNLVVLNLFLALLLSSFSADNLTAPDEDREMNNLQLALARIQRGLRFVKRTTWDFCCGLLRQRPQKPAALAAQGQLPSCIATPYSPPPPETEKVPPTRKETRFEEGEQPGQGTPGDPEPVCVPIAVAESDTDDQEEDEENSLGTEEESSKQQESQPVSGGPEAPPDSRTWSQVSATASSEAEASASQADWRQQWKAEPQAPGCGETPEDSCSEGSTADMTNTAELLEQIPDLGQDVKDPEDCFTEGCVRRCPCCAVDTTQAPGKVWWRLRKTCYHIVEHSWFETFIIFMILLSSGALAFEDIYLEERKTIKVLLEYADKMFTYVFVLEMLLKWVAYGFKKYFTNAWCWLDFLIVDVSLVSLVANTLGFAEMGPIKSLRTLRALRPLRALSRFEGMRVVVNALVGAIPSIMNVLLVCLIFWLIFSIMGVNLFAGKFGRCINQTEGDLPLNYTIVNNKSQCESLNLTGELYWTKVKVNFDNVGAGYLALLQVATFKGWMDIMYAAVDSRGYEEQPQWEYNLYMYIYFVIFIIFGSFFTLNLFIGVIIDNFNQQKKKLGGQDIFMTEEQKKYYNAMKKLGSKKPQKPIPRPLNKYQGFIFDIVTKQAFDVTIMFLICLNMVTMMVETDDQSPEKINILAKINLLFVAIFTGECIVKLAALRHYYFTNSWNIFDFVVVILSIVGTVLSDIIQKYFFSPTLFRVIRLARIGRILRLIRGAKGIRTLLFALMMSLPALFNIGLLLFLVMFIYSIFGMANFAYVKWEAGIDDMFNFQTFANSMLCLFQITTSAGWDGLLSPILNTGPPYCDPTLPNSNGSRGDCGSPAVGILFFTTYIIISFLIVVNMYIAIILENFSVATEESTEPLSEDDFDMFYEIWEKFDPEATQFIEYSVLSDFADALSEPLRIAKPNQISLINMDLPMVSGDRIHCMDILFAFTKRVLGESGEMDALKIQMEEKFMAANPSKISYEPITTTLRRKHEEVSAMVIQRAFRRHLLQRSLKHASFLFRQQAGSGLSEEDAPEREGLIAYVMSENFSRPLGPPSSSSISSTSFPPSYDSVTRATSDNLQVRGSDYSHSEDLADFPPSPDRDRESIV
Sequence of ovalbumin (OVA) (P01012 whole entry, species assumed): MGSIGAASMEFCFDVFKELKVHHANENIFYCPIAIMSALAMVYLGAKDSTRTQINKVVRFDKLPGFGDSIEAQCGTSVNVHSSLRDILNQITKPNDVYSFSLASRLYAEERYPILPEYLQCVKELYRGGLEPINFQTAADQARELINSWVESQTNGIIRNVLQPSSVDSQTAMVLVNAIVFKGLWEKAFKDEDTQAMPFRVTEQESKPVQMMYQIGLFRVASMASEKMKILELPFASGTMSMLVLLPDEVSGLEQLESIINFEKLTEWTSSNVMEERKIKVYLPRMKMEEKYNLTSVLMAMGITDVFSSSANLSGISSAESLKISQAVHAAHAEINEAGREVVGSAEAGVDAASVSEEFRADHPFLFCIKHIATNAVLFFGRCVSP
Sequence of bovine serum albumin (P02769 25-607): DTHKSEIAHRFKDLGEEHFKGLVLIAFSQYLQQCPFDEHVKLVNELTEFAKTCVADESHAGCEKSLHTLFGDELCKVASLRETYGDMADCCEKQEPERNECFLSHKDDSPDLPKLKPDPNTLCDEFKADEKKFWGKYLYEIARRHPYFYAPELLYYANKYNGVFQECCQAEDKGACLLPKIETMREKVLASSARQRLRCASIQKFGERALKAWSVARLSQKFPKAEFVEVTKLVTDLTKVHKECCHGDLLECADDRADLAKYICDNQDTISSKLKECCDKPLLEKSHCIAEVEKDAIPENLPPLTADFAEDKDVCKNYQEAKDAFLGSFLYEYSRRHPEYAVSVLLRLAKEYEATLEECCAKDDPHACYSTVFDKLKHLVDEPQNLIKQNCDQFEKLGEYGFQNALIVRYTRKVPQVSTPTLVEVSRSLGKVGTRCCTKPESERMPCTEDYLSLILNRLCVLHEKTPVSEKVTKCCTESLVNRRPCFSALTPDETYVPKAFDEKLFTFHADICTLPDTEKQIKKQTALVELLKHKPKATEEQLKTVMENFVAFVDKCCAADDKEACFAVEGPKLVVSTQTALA

Molecule: O=C(O)CCCC[C@@H]1CCSS1 (racemic) [lipoic acid]
- increase in F2-IsoPs esterified in the kidney [1]: completely suppressed to below control levels
- cognitive impairment [2]: effective in improving cognitive impairment

Molecule: CC(C)(C)OO [t-BHP, tert-butyl hydroperoxide]
- Na channel availability [3]: reduced Na channel availability
- V1/2 availability of native Na+ channels [3]: −82.8±1.7 mV
- formation of lipid peroxidation products [4]: abundant quantities of F2-IsoPs and IsoK

Molecule: E2-isoketal
- PHF-tau formation (Alz50) [5]: strong Alz50 immunoreactivity
- A1 (amplitude of the fast component, recovery from inactivation) [6]: 0.79 ± 0.04
- A2 (amplitude of the slow component, recovery from inactivation) [6]: 0.21 ± 0.04
- INa decay [6]: speeded the rate Of INa decay
- V1/2 voltage-dependence of activation [6]: −41.6±1.5 mV
- P500/P1 (use-dependence) [6, 14]: 0.89±0.02
- P500/P1 (use-dependence) ([6]; in the presence of flecainide 1 μM): 0.66±0.03
- V1/2 voltage-dependence of inactivation (availability) ([6]; flecainide 1 μM): −96.4±1.1 mV
- activation of sodium channels ([6]; over a range of membrane potentials): no effect on the activation
- adduction to albumin [7]: essentially complete within a few minutes
- IC50 [8]: 2100 nM
- IC50 [9]: 330 nM
- Na channel availability [3]: reduced Na channel availability
- V1/2 availability of native Na+ channels [3]: −82.0±1.7 mV
- cross-linking of ovalbumin [10]: extensive cross-linked high molecular weight oligimers
- CC50 [11]: 670 nM

Molecule: O=C(NCC1CCCCN1)c1cc(OCC(F)(F)F)ccc1OCC(F)(F)F (centres unmarked) [flecainide]
- A1 (amplitude of the fast component, recovery from inactivation) [6]: 0.80 ± 0.04
- A2 (amplitude of the slow component, recovery from inactivation) [6]: 0.20 ± 0.04
- P500/P1 (use-dependence) [6, 14]: 0.87±0.04
- V1/2 voltage-dependence of inactivation (availability) ([6]; flecainide 1 μM): −86.4±2.1 mV
- P500/P1 (use-dependent block) ([6]; WT, flecainide 10 μM, IsoK 10 μM): 0.38±0.05
- V1/2 voltage-dependence of inactivation ([6]; flecainide 1 μM in the presence of IsoK 10 μM): −99.3±2.3 mV
- P500/P1 (use-dependent block) [12]: 0.92±0.03
- mortality increase [13]: three-fold
